Experiments:
[1] = pKa value by 1H NMR titration experiments; pK3; assay type: physicochemical
[2] = pKa value by 1H NMR titration experiments; pK1; assay type: physicochemical
[3] = pKa value by 1H NMR titration experiments; pK2; assay type: physicochemical
[4] = species: Rattus norvegicus; assay: Depolarizing potency in new born rat spinal cord; assay type: functional
[5] = species: Rattus norvegicus; assay: Compound was tested for the inhibition of spinal reflex evoked by electrical stimulation of the dorsal root of new born rat
[6] = Compound was tested for the Inhibition of forskolin-stimulated cAMP formation in the cultured spinal neurons; conditions: Rattus norvegicus

Compound | pKa [1] | pKa [2] | pKa [3] | Relative potency [4] | IC50 [5] [nM] | IC50 [6] [nM]
C=C(C)[C@H]1CN[C@H](C(=O)O)[C@H]1CC(=O)O [KAINIC ACID] | 10.1 | 2.1 | 4.3 | 100 |  | 
N[C@H](C(=O)O)[C@@H]1C[C@H]1C(=O)O | 9.5 | 2.2 | 4.2 |  |  | 
N[C@@H](CCC(=O)O)C(=O)O [GLUTAMIC ACID] | 9.7 |  |  | 1 |  | 
N[C@H](C(=O)O)[C@@H]1C[C@@H]1C(=O)O | 10 | 2.5 | 4.6 | 100 |  | 
N[C@H](C(=O)O)[C@H]1C[C@@H]1C(=O)O | 9.7 | 1.9 | 4.2 | 6 | 700 | 100
N[C@H](C(=O)O)[C@H]1C[C@H]1C(=O)O | 10 | 2.1 | 4.3 |  |  | 
COC[C@@H]1[C@H](C(=O)O)[C@H]1[C@H](N)C(=O)O | 9.7 | 2.1 | 4 | 0.1 |  | 
Cc1onc(O)c1CC(N)C(=O)O [(R,S)-AMPA] | 10.1 | 2.1 | 5.2 |  |  | 
COC[C@H]1[C@H](C(=O)O)[C@H]1[C@H](N)C(=O)O | 10.2 | 2.3 | 4.2 | 0.1 |  | 
COC[C@H]1[C@H](C(=O)O)[C@@H]1[C@H](N)C(=O)O | 9.6 | 2.2 | 4.7 | 50 |  | 
COC[C@@H]1[C@H](C(=O)O)[C@@H]1[C@H](N)C(=O)O | 10.1 | 2 | 5.1 | 25 |  | 
